Test results from US20170320870A1 (Medical Research Council Technology, priority 2009, published 2017).

The compounds below were run against T1, LRRK2 wild type (recombinant human, catalytic domain amino acids 970-2527, GST-tagged) (Homo sapiens, UniProt Q5S007) (assay: LRRK2 wild type protein kinase assay ([γ-33P] ATP, peptide substrate […]), IC50). Conditions: LRRK2 (variant not given); read-out: Potency score, LRRK2 IC50.
T1 construct: The wild type used was recombinant human, catalytic domain (amino acids 970-2527) GST-tagged, expressed in insect cells; GST; purchased Invitrogen Corporation PV4873; host or cells: insect cells
T1 sequence (Q5S007 970-2527): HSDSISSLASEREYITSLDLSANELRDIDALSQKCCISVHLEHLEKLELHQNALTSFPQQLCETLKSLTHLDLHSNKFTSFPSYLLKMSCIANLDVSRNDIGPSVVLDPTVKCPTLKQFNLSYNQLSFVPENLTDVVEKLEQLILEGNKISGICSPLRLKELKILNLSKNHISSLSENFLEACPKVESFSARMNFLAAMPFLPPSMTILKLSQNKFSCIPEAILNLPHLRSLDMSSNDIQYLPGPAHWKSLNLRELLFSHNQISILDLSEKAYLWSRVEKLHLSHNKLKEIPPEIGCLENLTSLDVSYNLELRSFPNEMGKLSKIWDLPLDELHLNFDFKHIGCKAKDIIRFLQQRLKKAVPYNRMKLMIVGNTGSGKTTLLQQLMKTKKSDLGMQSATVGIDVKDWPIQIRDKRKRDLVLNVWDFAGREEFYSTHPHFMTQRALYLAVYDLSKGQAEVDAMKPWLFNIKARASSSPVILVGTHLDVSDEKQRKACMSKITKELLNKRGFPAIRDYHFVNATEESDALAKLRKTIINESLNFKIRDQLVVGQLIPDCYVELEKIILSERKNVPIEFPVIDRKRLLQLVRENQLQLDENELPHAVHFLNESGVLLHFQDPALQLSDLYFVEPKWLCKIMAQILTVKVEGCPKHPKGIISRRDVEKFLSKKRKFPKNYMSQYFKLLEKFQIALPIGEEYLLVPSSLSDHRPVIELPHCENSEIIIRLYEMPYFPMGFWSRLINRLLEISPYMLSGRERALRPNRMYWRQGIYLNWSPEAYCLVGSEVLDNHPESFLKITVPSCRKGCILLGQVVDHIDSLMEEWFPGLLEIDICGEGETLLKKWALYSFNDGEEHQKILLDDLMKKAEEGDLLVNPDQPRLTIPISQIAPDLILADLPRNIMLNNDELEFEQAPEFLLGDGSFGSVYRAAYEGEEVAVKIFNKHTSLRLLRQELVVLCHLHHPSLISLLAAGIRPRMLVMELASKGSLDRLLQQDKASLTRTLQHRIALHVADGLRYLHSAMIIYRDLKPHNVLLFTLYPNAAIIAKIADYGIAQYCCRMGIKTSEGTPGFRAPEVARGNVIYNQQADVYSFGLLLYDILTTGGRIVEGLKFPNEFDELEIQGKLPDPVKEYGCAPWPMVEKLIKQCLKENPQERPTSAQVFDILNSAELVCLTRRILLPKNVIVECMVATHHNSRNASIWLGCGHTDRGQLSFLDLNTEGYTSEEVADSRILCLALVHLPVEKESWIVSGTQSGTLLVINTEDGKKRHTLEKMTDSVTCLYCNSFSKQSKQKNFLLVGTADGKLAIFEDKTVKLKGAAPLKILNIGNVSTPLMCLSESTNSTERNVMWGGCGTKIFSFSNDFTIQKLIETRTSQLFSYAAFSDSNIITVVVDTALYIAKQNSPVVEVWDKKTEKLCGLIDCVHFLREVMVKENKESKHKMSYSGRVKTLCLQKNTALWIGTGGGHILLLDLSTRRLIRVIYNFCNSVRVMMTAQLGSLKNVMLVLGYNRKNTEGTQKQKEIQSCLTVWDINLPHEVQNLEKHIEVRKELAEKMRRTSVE
Format: biochemical
In short: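 Insect-cell-expressed enzyme (~5 nM), no activation, incubated 180 min at ~21 °C in 50 mM Tris-HCl pH 7.5, 0.1 mM EGTA, 1 mM DTT, 10 mM MgCl2 with 100 μM peptide substrate and [γ-33P]ATP. Reaction stopped with orthophosphoric acid, captured on P81 filters and counted; IC50 from 10 concentrations in duplicate.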

Row | IC50 | Structure (SMILES)
1 | 100 to 1000 nM | Cc1n[nH]c2ccnc(N[C@@H](C)C3CC3)c12 [Example 42, ((S)-1-Cyclopropyl-ethyl)-(3-methyl-1H-pyrazolo[4,3-c]pyridin-4-yl)-amine]
2 | < 100 nM | Cc1n[nH]c2ccnc(O[C@@H]3CCC[C@H]3C)c12 (racemic) [Example 298, Trans-3-Methyl-4-(2-methyl-cyclopentyloxy)-1H-pyrazolo[4,3-c]pyridine]
3 | < 100 nM | O=C(Nc1cccc(CCc2n[nH]c3ccnc(NC4CCCCC4)c23)c1)C1CCCC1 [Example 225, Cyclopentanecarboxylic acid {3-[2-(4-cyclohexylamino-1H-pyrazolo[4,3-c]pyridin-3-yl)-ethyl]-phenyl}-amide]
4 | 100 to 1000 nM | O=C(CCc1n[nH]c2ccnc(NC3CCCCC3)c12)N1CCOC(c2ccccc2)C1 (centres unmarked) [Example 205, 3-(4-Cyclohexylamino-1H-pyrazolo[4,3-c]pyridin-3-yl)-1-(2-phenyl-morpholin-4-yl)-propan-1-one]
5 | 100 to 1000 nM | Cc1n[nH]c2ccnc(OC3CCOCC3)c12 [Example 118, 3-Methyl-4-(tetrahydro-pyran-4-yloxy)-1H-pyrazolo[4,3-c]pyridine]
6 | 100 to 1000 nM | CC(C)C(=O)Nc1ccc(CCc2n[nH]c3ccnc(NC4CCCCC4)c23)cc1 [Example 263, N-{4-[2-(4-Cyclohexylamino-1H-pyrazolo[4,3-c]pyridin-3-yl)-ethyl]-phenyl}-isobutyramide]
7 | 1000 to 10000 nM | CN(C)C1CCN(C(=O)CCc2n[nH]c3ccnc(NC4CCCCC4)c23)CC1 [Example 174, 3-(4-Cyclohexylamino-1H-pyrazolo[4,3-c]pyridin-3-yl)-1-(4-dimethylamino-piperidin-1-yl)-propan-1-one]
8 | 100 to 1000 nM | Cc1n[nH]c2ccnc(Nc3cc(F)ccc3F)c12 [Example 308, (2,5-Difluoro-phenyl)-(3-methyl-1H-pyrazolo[4,3-c]pyridin-4-yl)-amine]
9 | 100 to 1000 nM | COC(=O)c1ccc(CCc2n[nH]c3ccnc(NC4CCCCC4)c23)cc1 [Example 232, 4-[2-(4-Cyclohexylamino-1H-pyrazolo[4,3-c]pyridin-3-yl)-ethyl]-benzoic acid methyl ester]
10 | 1000 to 10000 nM | Cc1n[nH]c2ccnc(N[C@H](C)C3CC3)c12 [Example 43, ((R)-1-Cyclopropyl-ethyl)-(3-methyl-1H-pyrazolo[4,3-c]pyridin-4-yl)-amine]
11 | 1000 to 10000 nM | c1ccc([C@@H]2CCCN(CCCc3n[nH]c4ccnc(NC5CCCCC5)c34)C2)cc1 [Example 215, Cyclohexyl-{3-[3-((S)-3-phenyl-piperidin-1-yl)-Propyl]-1H-pyrazolo[4,3-c]pyridin-4-yl}-amine]
12 | 1000 to 10000 nM | Cc1n[nH]c2ccnc(NCCCO)c12 [Example 301, 3-(3-Methyl-1H-pyrazolo[4,3-c]pyridin-4-ylamino)-propan-1-ol]
13 | 100 to 1000 nM | CN1CCC(C(=O)Nc2cccc(CCc3n[nH]c4ccnc(NC5CCCCC5)c34)c2)CC1 [Example 224, 1-Methyl-piperidine-4-carboxylic acid {3-[2-(4-cyclohexylamino-1H-pyrazolo[4,3-c]pyridin-3-yl)-ethyl]-phenyl}-amide]
14 | 1000 to 10000 nM | O=C(c1cccc(-c2n[nH]c3ccnc(NC4CCCCC4)c23)c1)N1CCOCC1 [Example 153, [3-(4-Cyclohexylamino-1H-pyrazolo[4,3-c]pyridin-3-yl)-phenyl]-morpholin-4-yl-methanone]
15 | 1000 to 10000 nM | Cc1n[nH]c2ccnc(OC3CCN(C(C)C)CC3)c12 [Example 119, 4-(1-Isopropyl-piperidin-4-yloxy)-3-methyl-1H-pyrazolo[4,3-c]pyridine]
16 | 100 to 1000 nM | Cc1n[nH]c2ccnc(OCc3ccccc3)c12 [Example 290, 4-Benzyloxy-3-methyl-1H-pyrazolo[4,3-c]pyridine]

Row | IC50 | Structure (SMILES)
17 | < 100 nM | O=C(CC1CC1)Nc1cccc(CCc2n[nH]c3ccnc(NC4CCCCC4)c23)c1 [Example 223, N-{3-[2-(4-Cyclohexylamino-1H-pyrazolo[4,3-c]pyridin-3-yl)-ethyl]-phenyl}-2-cyclopropyl-acetamide]
18 | 100 to 1000 nM | c1cc2[nH]nc(-c3ccoc3)c2c(NC2CCCCC2)n1 [Example 147]
19 | 100 to 1000 nM | Cc1n[nH]c2ccnc(Nc3ccc(N4CCCC4=O)cc3)c12 [Example 89, 1-[4-(3-Methyl-1H-pyrazolo[4,3-c]pyridin-4-ylamino)-phenyl]-pyrrolidin-2-one]
20 | 100 to 1000 nM | Cc1n[nH]c2ccnc(Nc3ccc(C(=O)N4CCCC4)cc3)c12 [Example 113, [4-(3-Methyl-1H-pyrazolo[4,3-c]pyridin-4-ylamino)-phenyl]-pyrrolidin-1-yl-methanone]
21 | < 100 nM | Cc1n[nH]c2ccnc(O[C@H]3CC[C@H](C)CC3)c12 [Example 294, Trans-3-Methyl-4-(4-methyl-cyclohexyloxy)-1H-pyrazolo[4,3-c]pyridine]
22 | 100 to 1000 nM | Clc1ccccc1-c1n[nH]c2ccnc(NC3CCCCC3)c12 [Example 143, [3-(2-Chloro-phenyl)-1H-pyrazolo[4,3-c]pyridin-4-yl]-cyclohexyl-amine]
23 | 100 to 1000 nM | O=C(CCc1n[nH]c2ccnc(NC3CCCCC3)c12)N1CCN(c2cccc(Cl)c2)CC1 [Example 180, 1-[4-(3-Chloro-phenyl)-piperazin-1-yl]-3-(4-cyclohexylamino-1H-pyrazolo[4,3-c]pyridin-3-yl)-propan-1-one]
24 | 100 to 1000 nM | Cc1n[nH]c2ccnc(NC3CCCCC3)c12 [Example 3, Cyclohexyl-(3-methyl-1H-pyrazolo[4,3-c]pyridin-4-yl)-amine]
25 | < 100 nM | C[C@@H]1CCN(C(=O)CCc2n[nH]c3ccnc(NC4CCCCC4)c23)C1 [Example 246, 3-(4-Cyclohexylamino-1H-pyrazolo[4,3-c]pyridin-3-yl)-1-((R)-3-methyl-pyrrolidin-1-yl)-propan-1-one]
26 | 100 to 1000 nM | Cc1n[nH]c2ccnc(Oc3ccc(-n4ccnc4)cc3)c12 [Example 120, 4-(4-Imidazol-1-yl-phenoxy)-3-methyl-1H-pyrazolo[4,3-c]pyridine]
27 | 100 to 1000 nM | c1cc2[nH]nc(C3CC3)c2c(NC2CCCCC2)n1 [Example 138, Cyclohexyl-(3-cyclopropyl-1H-pyrazolo[4,3-c]pyridin-4-yl)-amine]
28 | 100 to 1000 nM | COc1nccc2[nH]nc(CCC(=O)N3CCC[C@H](c4ccccc4)C3)c12 [Example 260, 3-(4-Methoxy-1H-pyrazolo[4,3-c]pyridin-3-yl)-1-((R)-3-phenyl-piperidin-1-yl)-propan-1-one]
29 | 100 to 1000 nM | CCOc1ccccc1Nc1nccc2[nH]nc(C)c12 [Example 68, (2-Ethoxy-phenyl)-(3-methyl-1H-pyrazolo[4,3-c]pyridin-4-yl)-amine]
30 | < 100 nM | Cc1n[nH]c2ccnc(O[C@H](C)Cc3ccccc3)c12 [Example 299, 3-Methyl-4-((R)-1-methyl-2-phenyl-ethoxy)-1H-pyrazolo[4,3-c]pyridine]
31 | < 100 nM | c1cc2[nH]nc(-c3ccoc3)c2c(OC2CCCCC2)n1 [Example 236, 4-Cyclohexyloxy-3-furan-3-yl-1H-pyrazolo[4,3-c]pyridine]
32 | 100 to 1000 nM | Cc1n[nH]c2ccnc(NCCc3ccccc3F)c12 [Example 332, [2-(2-Fluoro-phenyl)-ethyl]-(3-methyl-1H-pyrazolo[4,3-c]pyridin-4-yl)-amine]
